Experimental data reported in publication PMC4319993 (Nature, 2014).

Experiments:
R. palustris LCC (RpLCC) = test: coupled ATPase assay; type: biochemical, Rhodopseudomonas palustris; details: 1.5 mM ATP, 40 mM KHCO3, 10 mM MgCl2, 200 mM KCl, 100 mM Hepes pH 7.5; 0.25 uM enzyme
[1] = biological target: Mycobacterium avium subspecies paratuberculosis long-chain acyl-CoA carboxylase (Mycobacterium avium subspecies paratuberculosis); test: crystal structure
[2] = biological target: Mycobacterium avium subspecies paratuberculosis long-chain acyl-CoA carboxylase (Mycobacterium avium subspecies paratuberculosis); test: SEC
[3] = biological target: Mycobacterium avium subspecies paratuberculosis long-chain acyl-CoA carboxylase (Mycobacterium avium subspecies paratuberculosis); test: crystal structure; remark: listed apart in the source
[4] = biological target: Rhodopseudomonas palustris long-chain acyl-CoA carboxylase (Rhodopseudomonas palustris); test: SEC

Row | Molecule | Km (R. palustris LCC (RpLCC)) | further results
1 | CC(=O)SCCNC(=O)CCNC(=O)[C@H](O)C(C)(C)COP(=O)(O)OP(=O)(O)OC[C@H]1O[C@@H](n2cnc3c(N)ncnc32)[C@H](O)[C@@H]1OP(=O)(O)O [Acetyl-CoA] | 2000 ± 300 µM | 
2 | CCCC(=O)SCCNC(=O)CCNC(=O)[C@H](O)C(C)(C)COP(=O)(O)OP(=O)(O)OC[C@H]1O[C@@H](n2cnc3c(N)ncnc32)[C@H](O)[C@@H]1OP(=O)(O)O [Butyryl-CoA] | 820 ± 160 µM | 
3 | CCCCCCCCCC(=O)SCCNC(=O)CCNC(=O)[C@H](O)C(C)(C)COP(=O)(O)OP(=O)(O)OC[C@H]1O[C@@H](n2cnc3c(N)ncnc32)[C@H](O)[C@@H]1OP(=O)(O)O [Decanoyl-CoA] | 33 ± 5 µM | 
4 | CCCCCC(=O)SCCNC(=O)CCNC(=O)[C@H](O)C(C)(C)COP(=O)(O)OP(=O)(O)OC[C@H]1O[C@@H](n2cnc3c(N)ncnc32)[C@H](O)[C@@H]1OP(=O)(O)O [Hexanoyl-CoA] | 200 ± 40 µM | 
5 | CCCCCCCCCCCC(=O)SCCNC(=O)CCNC(=O)[C@H](O)C(C)(C)COP(=O)(O)OP(=O)(O)OC[C@H]1O[C@@H](n2cnc3c(N)ncnc32)[C@H](O)[C@@H]1OP(=O)(O)O [Lauroyl-CoA] | 19 ± 3 µM | 
6 | CCCCCCCCCCCCCC(=O)SCCNC(=O)CCNC(=O)[C@H](O)C(C)(C)COP(=O)(O)OP(=O)(O)OC[C@H]1O[C@@H](n2cnc3c(N)ncnc32)[C@H](O)[C@@H]1OP(=O)(O)O [Myristoyl-CoA] | 26 ± 2 µM | 
7 | CCCCCCCC(=O)SCCNC(=O)CCNC(=O)[C@H](O)C(C)(C)COP(=O)(O)OP(=O)(O)OC[C@H]1O[C@@H](n2cnc3c(N)ncnc32)[C@H](O)[C@@H]1OP(=O)(O)O [Octanoyl-CoA] | 370 ± 60 µM | 
8 | CCCCCCCCCCCCCCCC(=O)SCCNC(=O)CCNC(=O)[C@H](O)C(C)(C)COP(=O)(O)OP(=O)(O)OC[C@H]1O[C@@H](n2cnc3c(N)ncnc32)[C@H](O)[C@@H]1OP(=O)(O)O [Palmitoyl-CoA] | 5.8 ± 0.5 µM | 
9 | CCC(=O)SCCNC(=O)CCNC(=O)[C@H](O)C(C)(C)COP(=O)(O)OP(=O)(O)OC[C@H]1O[C@@H](n2cnc3c(N)ncnc32)[C@H](O)[C@@H]1OP(=O)(O)O [Propionyl-CoA] | 2200 ± 500 µM | 
10 | Mycobacterium avium subspecies paratuberculosis long-chain acyl-CoA carboxylase (enzyme) |  | stoichiometry N [1]: 6; stoichiometry N [2]: 6; stoichiometry N [3]: 6
11 | Rhodopseudomonas palustris long-chain acyl-CoA carboxylase (enzyme) |  | stoichiometry N [4]: 6
